Measured values reported in US8119621B2, “Tetrahydro-cyclopentyl pyrazole cannabinoid modulators” (Janssen Pharmaceutica N.V., priority 2005, dated 2012).
Several values for one entry are separate records, joined by “and”; a condition that tells them apart may be missing. Identical values can stand only once. Like-named read-outs stand apart in the source and are kept apart here.

Key:
human CB2 receptor = biological target: T1, human CB2 receptor (Homo sapiens, UniProt P34972); assay: Binding assay for CB2 agonists or inverse agonists ([3H]-CP-55,940 displacement, SK-N-MC membranes); conditions: for inhibition at 0.25 µM / inhibition at 0.2 µM: read-out: CB2 receptor binding percent inhibition
T1 construct: expressed in transfected cells; host or cells: SK-N-MC cells, stably transfected with pcDNA3 CB-2 (human); semi-purified membrane pellet
T1 sequence (P34972 whole entry): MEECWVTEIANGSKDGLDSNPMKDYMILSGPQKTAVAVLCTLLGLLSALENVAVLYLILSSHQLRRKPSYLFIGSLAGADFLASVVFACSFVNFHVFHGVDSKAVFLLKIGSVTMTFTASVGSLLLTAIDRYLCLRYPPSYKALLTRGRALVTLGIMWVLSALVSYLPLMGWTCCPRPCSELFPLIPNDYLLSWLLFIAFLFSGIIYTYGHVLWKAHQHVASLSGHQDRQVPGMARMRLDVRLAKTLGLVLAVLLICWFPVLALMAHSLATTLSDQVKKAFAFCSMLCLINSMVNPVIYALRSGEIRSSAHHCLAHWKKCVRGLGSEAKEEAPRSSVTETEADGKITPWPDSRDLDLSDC
Protocol: (§1) The human CB1 and CB2 receptors were stably expressed in SK-N-MC cells transfected with pcDNA3 CB-1 (human) or pcDNA3 CB-2 (human). The cells were grown in T-180 cell culture flasks under standard cell culture conditions at 37° C. in a 5% CO2 atmosphere. The cells were harvested by trysinization and homogenized in a homogenization buffer (10 mM Tris, 0.2 mM MgCl2, 5 mM KCl, with protease inhibitors aprotinin, leupeptin, pepstatin A and bacitracin) and centrifuged (2000 g). The supernatant was then centrifuged in 2M sucrose (31,300 g) to produce a semi-purified membrane pellet. The pellet was resuspended in homogenization and stored at −80° C.
(§2) On the day of the assay, the pellet was thawed on ice and diluted in assay buffer (50 mM Tris-HCl, 5 mM MgCl2, 2.5 mM EDTA, 0.5 mg/mL fatty acid free bovine serum albumin, pH 7.5). […] The plate was covered and incubated for 90 minutes at 30° C. The contents were then aspirated onto a Packard Unifilter GF/C filter bottom plate prewet with 0.5% polyethyleneimine. The wells of the polypropylene plate were rinsed and aspirated seven times with a 0.9% saline-0.5% Tween 20 solution. The Unifilter plate was dried, a scintillation cocktail was added to each well and the counts representing binding were quantitated in a TopCount scintillation counter.
(§3) For compounds tested, an IC50 binding value was obtained from percent inhibition studies in which various test concentrations were used. The binding value was calculated by linear regression.

human CB1 receptor [1] = biological target: T2, human CB1 receptor (Homo sapiens, UniProt P21554); assay: Functional cell-based assay, CB1 receptor mediated change in CRE β-gal expression (adenylate cyclase activity); conditions: for CB1 Receptor Functional Activity (change in functional activity): one compound concentration, vehicle treated cell = 100%
T2 construct: expressed in transfected cells; host or cells: SK-N-MC cells, stably transfected with pcDNA3 CB-1 (human); semi-purified membrane pellet
T2 sequence (P21554 whole entry): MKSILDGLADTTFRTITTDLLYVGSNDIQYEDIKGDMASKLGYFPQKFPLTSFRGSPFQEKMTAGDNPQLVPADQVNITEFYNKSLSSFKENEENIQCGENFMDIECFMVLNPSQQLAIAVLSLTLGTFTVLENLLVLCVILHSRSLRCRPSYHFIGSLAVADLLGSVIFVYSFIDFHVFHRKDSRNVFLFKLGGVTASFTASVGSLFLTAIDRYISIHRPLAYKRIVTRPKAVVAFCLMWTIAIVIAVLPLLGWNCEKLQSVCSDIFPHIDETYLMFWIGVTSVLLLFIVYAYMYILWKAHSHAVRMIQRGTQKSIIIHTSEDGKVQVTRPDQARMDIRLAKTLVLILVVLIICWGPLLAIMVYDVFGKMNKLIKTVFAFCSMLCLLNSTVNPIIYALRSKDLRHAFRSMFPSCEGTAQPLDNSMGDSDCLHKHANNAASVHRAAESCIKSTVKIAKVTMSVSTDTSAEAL
Source text: The CB1 and CB2 receptors are G-protein coupled receptors (GPCR), which influence cell function via the Gi-protein. These receptors modulate the activity of intracellular adenylate cyclase, which in turn produces the intracellular signal messenger cyclic-AMP (cAMP).
At baseline, or during non-ligand bound conditions, these receptors are constitutively active and tonically suppress adenylate cyclase activity. The binding of an agonist causes further receptor activation and produces additional suppression of adenylate cyclase activity. The binding of an inverse agonist inhibits the constitutive activity of the receptors and results in an increase in adenylate cyclase activity.
Test compounds were evaluated in SK-N-MC cells which, using standard transfection procedures, were stably transfected with human cDNA for pcDNA3-CRE β-gal and pcDNA3 CB1 receptor (human) or pcDNA3 CB2 receptor (human). By expressing CRE β-gal, the cells produced β-galactosidase in response to CRE promoter activation by cAMP. Cells expressing CRE β-gal and either the human CB1 or CB2 receptor will produce less β-galactosidase when treated with a CB1/CB2 agonist and will produce more β-galactosidase when treated with a CB1/CB2 inverse agonist.
The cells were grown in 96-well plates under standard cell culture conditions at 37° C. in a 5% CO2 atmosphere. After 3 days, the media was removed and a test compound in media (wherein the media was supplemented with 2 mM L-glutamine, […] sodium pyruvate, 0.1% low fatty acid FBS (fetal bovine serum) and antibiotics) was added to the cell. The plates were incubated for 30 minutes at 37° C. and the plate cells were then treated with forskolin over a 4-6 hour period, then washed and lysed. The β-galactosidase activity was quantitated using commercially available kit reagents (Promega Corp. Madison, Wis.) and a Vmax Plate Reader (Molecular Devices, Inc).
The change in β-galactosidase activity was determined by setting a vehicle treated cell's activity value at 100% and expressing the β-galactosidase activity measured in a corresponding compound treated cell as a percent of the vehicle treated cell activity.
The EC50 value for functional activity for compounds tested was calculated by linear regression and was obtained from studies in which varying compound concentrations were used.
Where an EC50 value was not obtained for a test compound, the value shown (in %) represents change in functional activity and was obtained from a study in which one compound concentration was used.

human CB1 receptor [2] = biological target: T2, human CB1 receptor; assay: Binding assay for CB1 agonists or inverse agonists ([3H]-CP-55,940 displacement, SK-N-MC membranes); conditions: for inhibition at 0.25 µM / inhibition at 1 µM / inhibition at 0.2 µM: read-out: CB1 receptor binding percent inhibition; for inhibition at 0.2 µM: test concentration 0.2 μM (footnote 2)
Protocol: as §1, §2, §3

[3] = test concentration 0.25 μM (footnote 3)
[4] = test concentration 0.2 μM (footnote 2)

C[C@H](NS(=O)(=O)/C=C/c1nn(-c2ccc(F)cc2F)c2c1CCC2Cc1cccc(F)c1)c1ccccc1 (stereo partly drawn) [Cpd 1, (2E)-2-[1-(2,4-difluoro-phenyl)-6-(3-fluoro-benzyl)-1,4,5,6-tetrahydro-cyclopentapyrazol-3-yl]-ethenesulfonic acid [(1S)-1-phenyl-ethyl]-amide]
inhibition at 0.25 µM (human CB2 receptor): 14% | EC50 (human CB1 receptor [1]; CB1 receptor functional agonist EC50, SK-N-MC cells, CRE β-gal, functional agonist): 40 nM | inhibition at 0.25 µM (human CB1 receptor [2]): 5%

O=S(=O)(/C=C/c1nn(-c2ccc(F)cc2F)c2c1CCC2Cc1cccc(F)c1)NN1CCOCC1 (centres unmarked) [Cpd 2, (2E)-2-[1-(2,4-difluoro-phenyl)-6-(3-fluoro-benzyl)-1,4,5,6-tetrahydro-cyclopentapyrazol-3-yl]-ethenesulfonic acid morpholin-4-ylamide]
inhibition at 0.25 µM (human CB2 receptor; [3]): 21% | CB1 Receptor Functional Activity (change in functional activity) (human CB1 receptor [1]): 58% | inhibition at 0.25 µM (human CB1 receptor [2]; [3]): 0%

O=S(=O)(/C=C/c1nn(-c2ccc(F)cc2F)c2c1CCC2Cc1cccc(F)c1)NN1CCCCC1 (centres unmarked) [Cpd 3, (2E)-2-[1-(2,4-difluoro-phenyl)-6-(3-fluoro-benzyl)-1,4,5,6-tetrahydro-cyclopentapyrazol-3-yl]-ethenesulfonic acid piperidin-1-ylamide]
inhibition at 0.25 µM (human CB2 receptor; [3]): 0% | EC50 (human CB1 receptor [1]): 5600 nM | inhibition at 0.25 µM (human CB1 receptor [2]; [3]): 22%

C[C@@H](NS(=O)(=O)/C=C/c1nn(-c2ccc(F)cc2F)c2c1CCC2Cc1cccc(F)c1)c1ccccc1 (stereo partly drawn) [Cpd 4, (2E)-2-[1-(2,4-difluoro-phenyl)-6-(3-fluoro-benzyl)-1,4,5,6-tetrahydro-cyclopentapyrazol-3-yl]-ethenesulfonic acid [(1R)-1-phenyl-ethyl]-amide]
inhibition at 0.25 µM (human CB2 receptor): 17% | CB1 Receptor Functional Activity (change in functional activity) (human CB1 receptor [1]): 34% | inhibition at 0.25 µM (human CB1 receptor [2]): 24%

CC12CCC(C1)C(C)(C)[C@H]2NC(=O)c1nn(-c2ccc(F)cc2F)c2c1CCC2Cc1cccc(F)c1 (stereo partly drawn) [Cpd 7, 1-(2,4-difluoro-phenyl)-6-(3-fluoro-benzyl)-1,4,5,6-tetrahydro-cyclopentapyrazole-3-carboxylic acid [(2S)-1,3,3-trimethyl-bicyclo[2.2.1]hept-2-yl]-amide]
inhibition at 0.25 µM (human CB2 receptor): 70% | inhibition at 0.25 µM (human CB1 receptor [2]): 60%

C[C@@H](NS(=O)(=O)/C=C/c1nn(-c2ccc(Cl)cc2Cl)c2c1CCC2Cc1cccc(Cl)c1)C1CCCCC1 (stereo partly drawn) [Cpd 9, (2E)-2-[6-(3-chloro-benzyl)-1-(2,4-dichloro-phenyl)-1,4,5,6-tetrahydro-cyclopentapyrazol-3-yl]-ethenesulfonic acid [(1R)-1-cyclohexyl-ethyl]-amide]
inhibition at 0.25 µM (human CB2 receptor; [3]): 18% | inhibition at 0.25 µM (human CB1 receptor [2]; [3]): 44%

O=S(=O)(/C=C/c1nn(-c2ccc(Cl)cc2Cl)c2c1CCC2Cc1cccc(Cl)c1)NN1CCCCC1 (centres unmarked) [Cpd 10, (2E)-2-[6-(3-chloro-benzyl)-1-(2,4-dichloro-phenyl)-1,4,5,6-tetrahydro-cyclopentapyrazol-3-yl]-ethenesulfonic acid piperidin-1-ylamide]
inhibition at 1 µM (human CB1 receptor [2]; test concentration 1 μM (footnote 1)): 18%

C[C@H](NS(=O)(=O)/C=C/c1nn(-c2ccc(Cl)cc2Cl)c2c1CCC2Cc1cccc(Cl)c1)c1ccccc1 (stereo partly drawn) [Cpd 11, (2E)-2-[6-(3-chloro-benzyl)-1-(2,4-dichloro-phenyl)-1,4,5,6-tetrahydro-cyclopentapyrazol-3-yl]-ethenesulfonic acid [(1S)-1-phenyl-ethyl]-amide]
inhibition at 0.25 µM (human CB1 receptor [2]; [3]): 27%

O=C(N[C@@H]1c2ccccc2C[C@@H]1O)c1nn(-c2ccc(F)cc2F)c2c1CCC2Cc1cccc(F)c1 (stereo partly drawn) [Cpd 12, 1-(2,4-difluoro-phenyl)-6-(3-fluoro-benzyl)-1,4,5,6-tetrahydro-cyclopentapyrazole-3-carboxylic acid [(1R,2S)-2-hydroxy-indan-1-yl]-amide]
CB2 receptor binding percent inhibition (human CB2 receptor; [3]): ^(3) 31% | IC50 (human CB1 receptor [2]): 90 nM | inhibition at 0.25 µM (human CB1 receptor [2]): 63%

O=C(c1nn(-c2ccc(F)cc2F)c2c1CCC2Cc1cccc(F)c1)N1CCN(c2ccccc2)CC1 (centres unmarked) [Cpd 17, [1-(2,4-difluoro-phenyl)-6-(3-fluoro-benzyl)-1,4,5,6-tetrahydro-cyclopentapyrazol-3-yl]-(4-phenyl-piperazin-1-yl)-methanone]
EC50 (human CB1 receptor [1]; CB1 Receptor Functional Inverse Agonist EC50, SK-N-MC cells, CRE β-gal, forskolin): 400 nM and 100 nM | inhibition at 1 µM (human CB1 receptor [2]): 35%

O=C(NN1CCOCC1)c1nn(-c2ccc(F)cc2F)c2c1CCC2Cc1cccc(F)c1 (centres unmarked) [Cpd 22, 1-(2,4-difluoro-phenyl)-6-(3-fluoro-benzyl)-1,4,5,6-tetrahydro-cyclopentapyrazole-3-carboxylic acid morpholin-4-ylamide]
inhibition at 0.25 µM (human CB2 receptor; [3]): 0% | inhibition at 0.25 µM (human CB1 receptor [2]; [3]): 14%

O=C(c1nn(-c2ccc(F)cc2F)c2c1CCC2Cc1cccc(F)c1)N1CCOCC1 (centres unmarked) [Cpd 23, [1-(2,4-difluoro-phenyl)-6-(3-fluoro-benzyl)-1,4,5,6-tetrahydro-cyclopentapyrazol-3-yl]-morpholin-4-yl-methanone]
inhibition at 0.25 µM (human CB2 receptor; [3]): 0% | inhibition at 0.25 µM (human CB1 receptor [2]; [3]): 0%

O=C(N[C@H](CO)c1ccccc1)c1nn(-c2ccc(F)cc2F)c2c1CCC2Cc1cccc(F)c1 (stereo partly drawn) [Cpd 24, 1-(2,4-difluoro-phenyl)-6-(3-fluoro-benzyl)-1,4,5,6-tetrahydro-cyclopentapyrazole-3-carboxylic acid [(1S)-2-hydroxy-1-phenyl-ethyl]-amide]
inhibition at 0.2 µM (human CB2 receptor; [4]): 0% | inhibition at 0.2 µM (human CB1 receptor [2]): 0%

O=C(N[C@@H](CO)Cc1ccccc1)c1nn(-c2ccc(F)cc2F)c2c1CCC2Cc1cccc(F)c1 (stereo partly drawn) [Cpd 25, 1-(2,4-difluoro-phenyl)-6-(3-fluoro-benzyl)-1,4,5,6-tetrahydro-cyclopentapyrazole-3-carboxylic acid [(1R)-1-benzyl-2-hydroxy-ethyl]-amide]
inhibition at 0.2 µM (human CB2 receptor; [4]): 31% | inhibition at 0.2 µM (human CB1 receptor [2]): 23%

O=C(N[C@@H](CCl)c1ccccc1)c1nn(-c2ccc(F)cc2F)c2c1CCC2Cc1cccc(F)c1 (stereo partly drawn) [Cpd 26, 1-(2,4-difluoro-phenyl)-6-(3-fluoro-benzyl)-1,4,5,6-tetrahydro-cyclopentapyrazole-3-carboxylic acid [(1R)-2-chloro-1-phenyl-ethyl]-amide]
inhibition at 0.2 µM (human CB2 receptor; [4]): 32% | inhibition at 0.2 µM (human CB1 receptor [2]): 24%

O=C(N[C@H](CCl)Cc1ccccc1)c1nn(-c2ccc(F)cc2F)c2c1CCC2Cc1cccc(F)c1 (stereo partly drawn) [Cpd 27, 1-(2,4-difluoro-phenyl)-6-(3-fluoro-benzyl)-1,4,5,6-tetrahydro-cyclopentapyrazole-3-carboxylic acid [(1S)-1-benzyl-2-chloro-ethyl]-amide]
inhibition at 0.2 µM (human CB2 receptor; [4]): 22% | inhibition at 0.2 µM (human CB1 receptor [2]): 14%

O=C(NN1CCCCC1)c1nn(-c2ccc(Cl)cc2Cl)c2c1CC/C2=C\c1ccc(F)cc1 [Cpd 28, (6E)-1-(2,4-dichloro-phenyl)-6-(4-fluoro-benzylidene)-1,4,5,6-tetrahydro-cyclopentapyrazole-3-carboxylic acid piperidin-1-ylamide]
CB2 receptor binding percent inhibition (human CB2 receptor; [4]): ^(2) 4% | IC50 (human CB1 receptor [2]): 60 nM | CB1 receptor binding percent inhibition (human CB1 receptor [2]; 0.2 µM): 0.06, ^(2) 68%
